Assay results from US10655140B2, “Herbicide-resistant protein, encoding gene and use thereof” (BEIJING DABEINONG BIOTECHNOLOGY CO., LTD., priority 2015, dated 2020).

Columns and labels:
[1] = system: Arabidopsis T1 plants transformed with 24DT22 nucleotide sequence, control nucleotide sequence and wild-type Arabidopsis plants; test: Herbicide resistance effect test of transgenic Arabidopsis T1 plants (spraying); type: in vivo, Arabidopsis thaliana; details: Arabidopsis genotype 24DT22; for High resistant (number of plants): 560 g ae/ha (1-fold field concentration), growth consistent with blank solvent 7 days after spraying; for Moderate resistant (number of plants): curly rosette leaves 7 days after spraying; for Low resistant (number of plants): incapable of bolting 14 days after spraying
From the text: 24DT22 gene was used to transform Arabidopsis for the first time. At first, T1 transformants were selected from the background of un-transformed seeds, using glufosinate-ammonium selection scheme. About 20000 T1 seeds are screened among which 314 strains of T1 generation positive transformants (PAT gene) were identified, i.e. the transformation efficiency was about 1.6%. Herbicide resistance effect tests to 2,4-D dimethyl ammonium salt and agroxone of Arabidopsis T1 plants transformed with 24DT22 nucleotide sequence, control nucleotide sequence respectively and wild-type Arabidopsis plants were performed after 18 days of planting.
Arabidopsis T1 plants transformed with 24DT22 nucleotide sequence, control nucleotide sequence respectively and wild-type Arabidopsis plants were sprayed with 2,4-D dimethyl ammonium salt (560 g ae/ha, 1-fold concentration in field), agroxone (560 g ae/ha, 1-fold concentration in field) and blank solvent (water). Resistance conditions of the plants were counted 7 days and 14 days after spraying. Plants with growth conditions consistent with blank solvent (water) 7 days after spaying were classified as highly resistant plants; Plants with curly rosette leaves 7 days after spaying were classified as moderately resistant plants; Plants incapable of bolting 14 days after spaying were classified as low-resistant plants and the dead plants 14 days after spaying were classified as non-resistant plants. Because each Arabidopsis T1 plant is an independent transformation event, significant differences of individual T1 responses can be expected under a given dose.

[2] = system: Corn plants containing 24DT22 nucleotide sequence, control nucleotide sequence and wild type corn plants; test: Herbicide-resistance effect test of transgenic corn T1 plants (prop/brace root development); type: in vivo, corn (Zong 31); details: 21 days after spraying
Experimental: Herbicide resistance effects tests to 2,4-D dimethyl ammonium salt and agroxone of corn plants containing 24DT22 nucleotide sequence, control nucleotide sequence respectively and wild type corn plants (stages V3-V4) were performed respectively.
Corn plants containing 24DT22 nucleotide sequence, control nucleotide sequence respectively and wild type corn plants were taken and spayed with 2,4-D dimethyl ammonium salt (8960 g ae/ha, 16-folds concentration in field), agroxone (8960 g ae/ha, 16-folds concentration in field) and blank solvent (water) respectively. Prop root development was counted 21 days after spaying. Three strains (S6, S7 and S8) of corn plants transformed with 24DT22 nucleotide sequence, two strains (S9 and S10) of corn plants transformed with control nucleotide sequence and 1 strain of wild type (CK2) corn were selected and 10-15 plants from each stain were tested.

[3] = system: Soybean plants containing 24DT22 nucleotide sequence, control nucleotide sequence and wild type soybean plants; test: Herbicide resistance effect test of transgenic soybean T1 plants (spraying, damage degree); type: in vivo, soybean (Zhonghuang 13); details: for Average damage % 6HAT: 6 hours after spraying; for Average damage % 2DAT: 2 days after spraying
Experimental: Herbicide resistance effects tests to 2,4-D dimethyl ammonium salt and agroxone of soybean plants containing 24DT22 nucleotide sequence and control nucleotide sequence respectively and wild type soybean plants (stages V3-V4) were performed respectively.
Soybean plants containing 24DT22 nucleotide sequence, control nucleotide sequence and wild type soybean plants were taken and spayed with 2,4-D dimethyl ammonium salt (2240 g ae/ha, four-folds concentration in field), agroxone (2240 g ae/ha, four-folds concentration in field) and blank solvent (water). Take statistics of the damage degree of each plant caused by herbicides according to the curling degree of leaves and the damage degree of growing point six hours ([…]), two days (2DAT), seven days (7DAT) and 14 days (14DAT) after spraying respectively: if leaves are flat like wild-type leaves and the growing point is intact, the damage degree is 0%; if leaves curl up and wilt and the growing point is died, the damage degree is 100%. There are three strains contained a transferred 24DT22 nucleotide sequence (S1, S2 and S3), two strains contained a transferred control sequence (S4 and S5) and one wild-type strain (CK1) in total; select 10-15 plants from each strain for testing.

[4] = corn strain S8 (24DT22), 8960 g ae/ha
[5] = soybean strain S1 (24DT22), 2240 g ae/ha (4-fold field concentration)
[6] = soybean strain S2 (24DT22), 2240 g ae/ha
[7] = soybean strain S3 (24DT22), 2240 g ae/ha

Row | Structure (SMILES) | High resistant (number of plants) [1] | Moderate resistant (number of plants) ([1]; 560 g ae/ha) | Non-resistant (number of plants) ([1]; 560 g ae/ha, dead 14 days after spraying) | Low resistant (number of plants) ([1]; 560 g ae/ha) | Abnormal development of brace roots (number of plants) ([2]; corn strain CK2 (wild type), 8960 g ae/ha) | Normal development of brace roots (number of plants) [2, 4] | Average damage % 6HAT [3, 5] | Average damage % 6HAT [3, 6] | Average damage % 6HAT [3, 7] | Average damage % 2DAT [3, 7] | Normal development of brace roots (number of plants) ([2]; corn strain S6 (24DT22), 8960 g ae/ha (16-fold field concentration)) | Normal development of brace roots (number of plants) ([2]; corn strain S7 (24DT22), 8960 g ae/ha) | Abnormal development of brace roots (number of plants) ([2]; corn strain S10 (control sequence), 8960 g ae/ha) | Average damage % 2DAT [3, 6] | Average damage % 7DAT ([3]; soybean strain S2 (24DT22), 2240 g ae/ha, 7 days after spraying)
1 | CNC.O=C(O)COc1ccc(Cl)cc1Cl [2,4-D dimethyl ammonium salt] | 28 | 1 | 0 | 2 | 15 | 10 | 6% | 11% | 3% | 0% |  |  |  |  | 
2 | Cc1cc(Cl)ccc1OCC(=O)O [agroxone] | 25 | 3 |  | 1 |  | 13 | 10% | 16% | 7% | 4% | 13 | 14 | 11 | 11% | 6%
